Laboratory results from patent US12303541B2, “Erodium crassifolium L'Her plant extracts and uses thereof” (priority 2015, dated 2025).

Tested on: IL-8
Assay: IL-8 levels in TNF-α treated HaCaT cells (EE, fractions, pure compounds)
Type: cell-based, human
Settings: for reduction of IL-8 levels by individual pure compounds: tested separately at the concentration present in comb-1, HaCaT
Experimental: After incubation, cell excitation was performed with recombinant human tumor necrosis factor-α (TNF-α, PeproTech, 300-01A, USA). Cultures in each well were treated with a final concentration of 50 ng/mL of TNFα and 50 μL plant extract. Three different controls were included in all experiments: (a) non-treated cells, with neither TNF-α nor plant extracts, (b) cells treated with TNF-α alone, (c) cells treated with TNF-α and the solvent (7% ethanol). The supernatant was collected, and the level of IL-8 was measured 16 h post-treatment using the commercial Human CXCL8/IL-8 DuoSet ELISA kit (R&D Systems, DY208-05, USA) according to the manufacturer's protocol. IL-8 is a common biomarker for inflammatory skin diseases. 16 h of TNF-α exposure induce IL-8 levels. Dexamethasone (Sigma-Aldrich, D4902, USA) was used as a positive control.

| Compound | IL-8 levels (17.6 μg/mL) | IL-8 reduction activity (all examined concentrations of pure standard) | reduction of IL-8 levels by individual pure compounds | IL-8, % of TNF-α activated cells (100 μM, HaCaT) [%] | level of IL-8 (100 μM, TNF-α 50 ng/mL, 16 h, HaCaT) [pg/mL] |
| --- | --- | --- | --- | --- | --- |
| Oc1cc(O)c2c(c1)O[C@H](c1cc(O)c(O)c(O)c1)[C@H](O)C2 [EGC, (−)-Epigallocatechin] | led to increased IL-8 levels | None of the examined concentrations of pure standard EGC showed any significant IL-8 reduction activity | inactive for reduction of IL-8 levels |  |  |
| C[C@@H]1C[C@H]2[C@@H]3CCC4=CC(=O)C=C[C@]4(C)[C@@]3(F)[C@@H](O)C[C@]2(C)[C@@]1(O)C(=O)CO [dexamethasone, Dexamethasone] |  |  |  | 59.4 | 104.0 ± 3.0 |
| O=C(O)c1cc(O)c(O)c(O)c1 [gallic acid] |  |  | inactive for reduction of IL-8 levels |  |  |
| catechin |  |  | inactive for reduction of IL-8 levels |  |  |
